In the CheMixHub viscosity set:
Values joined by “and” are separate entries in the source; they are usually repeats but may differ in a detail not shown here. Equal values may be shown once. ± gives the uncertainty stated by the source. Values belong to the compound of their own block, whether it stands above or below them.

Structure (SMILES): C1=CCCCC1
viscosity (303.15 K, 101 kPa): 0.573 ± 0.007 mPa·s

viscosity (298.15 K, 101 kPa): 0.6412 ± 0.014 mPa·s
viscosity (303.15 K, 101 kPa): 0.5825 ± 0.013 mPa·s
viscosity (308.15 K, 101 kPa): 0.5323 ± 0.011 mPa·s
viscosity (313.15 K, 101 kPa): 0.4915 ± 0.01 mPa·s
viscosity (318.15 K, 101 kPa): 0.4586 ± 0.0098 mPa·s
Structure (SMILES): C=C(C)C(=O)OCC

viscosity (293.15 K, 102 kPa): 1.17 ± 0.02 mPa·s
viscosity (303.15 K, 102 kPa): 1 ± 0.02 mPa·s
viscosity (313.15 K, 102 kPa): 0.871 ± 0.021 mPa·s
viscosity (323.15 K, 102 kPa): 0.765 ± 0.021 mPa·s
Structure (SMILES): CC(C)CC1CCCCC1

viscosity (293.15 K, 101.32 kPa): 2.29 ± 0.018 mPa·s
viscosity (298.15 K, 101.3 kPa): 2.012 ± 0.049 mPa·s
viscosity (298.15 K, 101.33 kPa): 1.936 ± 0.013 mPa·s
viscosity (303 K, 101 kPa): 1.49 ± 0.14 mPa·s
viscosity (303.15 K, 100 kPa): 1.73 ± 0.17 mPa·s
viscosity (308.15 K, 101.3 kPa): 1.485 ± 0.037 mPa·s
viscosity (308.15 K, 101.33 kPa): 1.494 ± 0.01 mPa·s
viscosity (313 K, 101 kPa): 1.13 ± 0.11 mPa·s
viscosity (313.15 K, 101.3 kPa): 1.322 ± 0.011 mPa·s
viscosity (313.15 K, 101.33 kPa): 1.427 ± 0.014 mPa·s and 1 ± 0.018 mPa·s
viscosity (318.15 K, 100 kPa): 1.171 ± 0.12 mPa·s
viscosity (318.15 K, 101 kPa): 1.228 ± 0.026 mPa·s
viscosity (323.15 K, 100 kPa): 0.995 ± 0.041 mPa·s
Structure (SMILES): CC(C)O
viscosity (303.15 K, 101.33 kPa): 1.878 ± 0.019 mPa·s and 1.731 ± 0.011 mPa·s and 1.4 ± 0.024 mPa·s
viscosity (308.15 K, 100 kPa): 1.579 ± 0.048 mPa·s and 1.49 ± 0.15 mPa·s
viscosity (313.15 K, 101 kPa): 1.319 ± 0.033 mPa·s and 1.281 ± 0.06 mPa·s and 1.4 ± 0.03 mPa·s
viscosity (323.15 K, 101 kPa): 1.063 ± 0.027 mPa·s and 1.083 ± 0.023 mPa·s
viscosity (323.15 K, 101.33 kPa): 1.105 ± 0.011 mPa·s and 1.056 ± 0.064 mPa·s

viscosity (298.15 K, 101 kPa): 4.868 ± 0.045 mPa·s
viscosity (303.15 K, 101.33 kPa): 3.594 ± 0.048 mPa·s
viscosity (313.15 K, 101.33 kPa): 2.601 ± 0.035 mPa·s
viscosity (323.15 K, 101.33 kPa): 1.936 ± 0.026 mPa·s
Structure (SMILES): CCC(C)CO (stereo unspecified)

viscosity (323.15 K, 100 kPa): 0.835 ± 0.01 mPa·s
Structure (SMILES): CCCCC1CCCCC1

Structure (SMILES): CCCCCCCCCBr
viscosity (297.75 K, 101 kPa): 1.922 ± 0.042 mPa·s
viscosity (303.55 K, 101 kPa): 1.721 ± 0.037 mPa·s
viscosity (313.65 K, 101 kPa): 1.458 ± 0.032 mPa·s

Structure (SMILES): CCCCCCCCn1cc[n+](C)c1.O=S(=O)([N-]S(=O)(=O)C(F)(F)F)C(F)(F)F
viscosity (308.15 K, 100 kPa): 56.43 ± 2.3 mPa·s

Structure (SMILES): CCCCCN
viscosity (293.15 K, 101.33 kPa): 0.656 ± 0.004 mPa·s
viscosity (298.15 K, 101.33 kPa): 0.609 ± 0.004 mPa·s
viscosity (303.15 K, 101 kPa): 0.5809 ± 0.005 mPa·s
viscosity (303.15 K, 101.33 kPa): 0.563 ± 0.003 mPa·s
viscosity (308.15 K, 101.33 kPa): 0.523 ± 0.003 mPa·s
viscosity (313.15 K, 101.33 kPa): 0.484 ± 0.003 mPa·s
viscosity (318.15 K, 101.33 kPa): 0.457 ± 0.002 mPa·s

Structure (SMILES): CCCCC[P+](CC)(CC)CC.O=S(=O)([N-]S(=O)(=O)C(F)(F)F)C(F)(F)F
viscosity (298.15 K, 101.3 kPa): 87.5 ± 18 mPa·s
viscosity (303.15 K, 101.3 kPa): 68.8 ± 14 mPa·s
viscosity (308.15 K, 101.3 kPa): 54.9 ± 11 mPa·s
viscosity (318.15 K, 101.3 kPa): 36.6 ± 7.3 mPa·s
viscosity (323.15 K, 101.3 kPa): 30.5 ± 6.1 mPa·s

Structure (SMILES): CCCCCl
viscosity (298.15 K, 101 kPa): 0.428 mPa·s
viscosity (318.15 K, 101 kPa): 0.356 mPa·s
viscosity (323.15 K, 101 kPa): 0.34 mPa·s

viscosity (298.15 K, 101 kPa): 109.5 ± 23 mPa·s
viscosity (308.15 K, 101 kPa): 70.36 ± 6.5 mPa·s
viscosity (318.15 K, 101 kPa): 47.79 ± 3 mPa·s
Structure (SMILES): CCCC[N+]1(C)CCCC1.N#C[S-]

viscosity (298.15 K, 100 kPa): 57.4 ± 1.8 mPa·s and 62.81 ± 3.2 mPa·s
viscosity (308.15 K, 100 kPa): 37.36 ± 2 mPa·s and 40.56 ± 2.1 mPa·s
viscosity (318.15 K, 100 kPa): 25.8 ± 1.4 mPa·s
Structure (SMILES): CCCC[n+]1ccn(C)c1.N#C[S-]

viscosity (298.15 K, 101.33 kPa): 0.503 ± 0.005 mPa·s
viscosity (308.15 K, 101.33 kPa): 0.444 ± 0.005 mPa·s
viscosity (318.15 K, 101.33 kPa): 0.386 ± 0.004 mPa·s
Structure (SMILES): CCCNCCC
viscosity (298.15 K, 100 kPa): 0.504 ± 0.1 mPa·s and 0.5042 ± 0.15 mPa·s (2×)
viscosity (303.15 K, 100 kPa): 0.471 ± 0.1 mPa·s and 0.4706 ± 0.15 mPa·s (2×)
viscosity (308.15 K, 100 kPa): 0.444 ± 0.1 mPa·s and 0.4444 ± 0.15 mPa·s (2×)

viscosity (298.16 K, 101 kPa): 5.89 ± 0.05 mPa·s
Structure (SMILES): CCNC(C)=O

Structure (SMILES): CCOC(=O)c1ccccc1
viscosity (293.15 K, 101.33 kPa): 2.013 ± 0.052 mPa·s and 2.21 ± 0.02 mPa·s
viscosity (298.15 K, 101.33 kPa): 1.954 ± 0.025 mPa·s and 1.936 ± 0.023 mPa·s
viscosity (303.15 K, 101.33 kPa): 1.597 ± 0.041 mPa·s and 1.77 ± 0.022 mPa·s and 1.811 ± 0.016 mPa·s
viscosity (308 K, 101.3 kPa): 1.593 ± 0.16 mPa·s
viscosity (308.15 K, 101.33 kPa): 1.61 ± 0.021 mPa·s and 1.591 ± 0.019 mPa·s
viscosity (313 K, 101.3 kPa): 1.446 ± 0.14 mPa·s
viscosity (313.15 K, 101 kPa): 1.446 ± 0.035 mPa·s and 1.463 ± 0.031 mPa·s and 1.461 ± 0.022 mPa·s
viscosity (313.15 K, 101.33 kPa): 1.284 ± 0.033 mPa·s and 1.453 ± 0.018 mPa·s
viscosity (318 K, 101.3 kPa): 1.339 ± 0.13 mPa·s
viscosity (318.15 K, 101 kPa): 1.339 ± 0.033 mPa·s and 1.35 ± 0.042 mPa·s
viscosity (318.15 K, 101.33 kPa): 1.332 ± 0.016 mPa·s
viscosity (323 K, 101.3 kPa): 1.254 ± 0.13 mPa·s
viscosity (323.15 K, 101 kPa): 1.254 ± 0.031 mPa·s
viscosity (323.15 K, 101.33 kPa): 1.058 ± 0.027 mPa·s

Structure (SMILES): CCS(=O)CC
viscosity (298.15 K, 101 kPa): 2.32 ± 0.05 mPa·s
viscosity (303.15 K, 101 kPa): 2.1 ± 0.04 mPa·s
viscosity (308.15 K, 101 kPa): 1.88 ± 0.04 mPa·s
viscosity (313.15 K, 101 kPa): 1.74 ± 0.04 mPa·s
viscosity (318.15 K, 101 kPa): 1.59 ± 0.03 mPa·s
viscosity (323.15 K, 101 kPa): 1.31 ± 0.03 mPa·s

viscosity (293.15 K, 101 kPa): 26.31 ± 0.54 mPa·s
viscosity (298.15 K, 100 kPa): 23.06 ± 1.1 mPa·s
viscosity (303.15 K, 100 kPa): 19.68 ± 0.93 mPa·s
viscosity (303.15 K, 101 kPa): 19.03 ± 0.49 mPa·s
viscosity (308.15 K, 100 kPa): 16.97 ± 0.8 mPa·s
viscosity (313.15 K, 101 kPa): 14.3 ± 0.46 mPa·s
viscosity (323.15 K, 100 kPa): 11.49 ± 0.54 mPa·s
viscosity (323.15 K, 101 kPa): 11.1 ± 0.45 mPa·s
Structure (SMILES): CCn1cc[n+](C)c1.N#C[S-]
viscosity (313.15 K, 100 kPa): 14.54 ± 0.69 mPa·s (2×) and 16.97 ± 0.8 mPa·s
viscosity (318.15 K, 100 kPa): 12.98 ± 0.61 mPa·s (2×) and 14.54 ± 0.69 mPa·s

Structure (SMILES): CNS(C)(=O)=O
viscosity (303.15 K, 101.33 kPa): 8.242 ± 0.21 mPa·s

viscosity (303.15 K, 101 kPa): 2.44 ± 0.028 mPa·s
Structure (SMILES): COC(=O)c1ccccc1O

Structure (SMILES): Cc1cccc([N+](=O)[O-])c1
viscosity (308.15 K, 101.33 kPa): 1.692 ± 0.01 mPa·s

Structure (SMILES): Cc1ccccc1[N+](=O)[O-]
viscosity (298.15 K, 101 kPa): 2.1 ± 0.021 mPa·s
viscosity (298.15 K, 101.33 kPa): 2.089 ± 0.021 mPa·s
viscosity (308.15 K, 101.33 kPa): 1.727 ± 0.011 mPa·s
viscosity (323.15 K, 101.33 kPa): 1.348 ± 0.013 mPa·s

Structure (SMILES): N#CCc1ccccc1
viscosity (298.15 K, 101 kPa): 1.868 ± 0.045 mPa·s

viscosity (298.15 K, 100 kPa): 4.861 ± 0.1 mPa·s
viscosity (323.15 K, 100 kPa): 2.156 ± 0.046 mPa·s
Structure (SMILES): OCC(F)(F)C(F)F

Structure (SMILES): c1cscn1
viscosity (298.15 K, 101 kPa): 1.008 ± 0.027 mPa·s
